From patent US20110251175A1, “Stigmine Conjugates for Substance Use Disorders” (priority 2008, published 2011)
Read-outs that look alike come from different tables or passages of the source.

Key:
[1] = target: BuChE (Homo sapiens, UniProt P06276); test: In vitro screening assay, BuChE inhibition; assay type: biochemical
Excerpt: An in vitro screening assay with various conjugates was completed according to the methods described in Ellman G L et al., Biochem Pharmacol., 7:88-95 (1961) and in Nadarajah B, J. Anal. Toxicol., 16:192-193 (1992), both of which are herein incorporated by reference in their entireties. The assay method was completed according to the following: […]

[2] = tested on: male CD IGS (Sprague Dawley derived) rats; test: Dose range for cholinergic effects / max tolerated dose; settings: for TIMTD/ MED: ratio of max tolerated dose to hypothermia MED, rats s.c.
Procedure: The dose range and time course for cholinergic effects of the compounds of the invention was determined as described below. • Subjects: Two hundred eight male CD IGS (Sprague Dawley derived) rats were received at 126-150 grams and maintained four per cage on a regular light/dark cycle (lights on 0600-1800) with ad libitum food and water for about 1 week before commencement of experimentation. • Apparatus: Injections were made subcutaneously (s.c.) with a 25-gauge needle on a 1-mL tuberculin syringe. Observations were made in a 5½×10-inch polycarbonate rat housing cage. Temperature was taken with a rat rectal probe on a Model BAT-12 electronic thermometer. • Compound Preparation: Test compounds were dissolved for example, in 0.9% saline. […] Injection volumes were 1 mL/kg, if the test compound was sufficiently soluble. If less soluble, maximum injection volume were 5 mL/kg.
Test Compounds were dosed at 1, 3, 10, 30, and 100 mg/kg • Procedure: The rats were brought to the test room in the home cage. Baseline temperatures were measured just before injection. After injection s.c., the rat was placed in the observation cage. At 0.5, 1, 2, and 4 hours after injection, it was observed briefly for gross signs; salivation was scored as absent, clearly present, or copious; and rectal temperature was taken. In observation for gross signs, special attention was paid to fasciculation (muscle twitch), tremor/ataxia, and abnormal gait. The experiment was designed to allow assessment of one rat per time point per minute. Salivation score and temperature were determined within this constraint, but only the most salient of gross signs were noted. After the 4-hour observation point, or sooner if signs of distress were observed, the rat was euthanized by CO2 inhalation. • Data Analysis: Gross signs, salivation score, and temperature at each time point were tabulated for inspection. This is a combination of within-subject design for control and between-subjects design for dose effect. That is, the effect of the compound was measured against the reading taken immediately before injection, and the difference between doses of the compound was measured between groups of three rats.

[3] = target: T1, human recombinant acetylcholinesterase (Homo sapiens, UniProt P22303); test: biochemical; settings: human recombinant AChE, 25° C., 30 minutes preincubation, Dixon plot
T1 construct: purchased Sigma Chemical Co (St. Louis, Mo.) C1682
T1 sequence (P22303 32-614): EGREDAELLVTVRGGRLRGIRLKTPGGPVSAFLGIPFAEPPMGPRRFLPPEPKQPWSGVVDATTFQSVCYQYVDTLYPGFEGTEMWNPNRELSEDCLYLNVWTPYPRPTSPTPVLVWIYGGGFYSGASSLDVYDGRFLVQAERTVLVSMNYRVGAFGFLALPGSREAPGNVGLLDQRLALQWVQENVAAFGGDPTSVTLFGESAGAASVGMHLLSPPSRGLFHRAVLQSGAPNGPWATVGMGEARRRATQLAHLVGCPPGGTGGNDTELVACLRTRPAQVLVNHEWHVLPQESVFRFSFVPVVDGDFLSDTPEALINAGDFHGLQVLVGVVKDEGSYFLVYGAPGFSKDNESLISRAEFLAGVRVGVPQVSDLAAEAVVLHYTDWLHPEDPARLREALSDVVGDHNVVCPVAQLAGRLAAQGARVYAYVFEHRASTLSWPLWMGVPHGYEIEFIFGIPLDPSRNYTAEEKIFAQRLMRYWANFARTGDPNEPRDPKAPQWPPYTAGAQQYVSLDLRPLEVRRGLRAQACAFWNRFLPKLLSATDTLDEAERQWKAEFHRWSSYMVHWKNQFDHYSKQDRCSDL

[4] = target: T2, AChE (Human recombinant HEK-293 cells) (Homo sapiens, UniProt P22303); assay type: biochemical
T2 construct: host or cells: HEK-293 cells (expression host as printed)
T2 sequence (P22303 32-614): as above

[5] = tested on: rats; test: Methamphetamine drug discrimination test
[6] = tested on: male CD IGS (Sprague Dawley derived) rats; test: Measurement of hypothermia (marker of CNS penetration for AChE inhibitors); assay type: in vivo; settings: Rattus norvegicus, sc, read-out: Hypothermia MED (mg/kg)
Procedure: The induction of hypothermia was determined for compounds of the invention according to the methods described in Freedman, et al., European Journal of Pharmacology, 187 (1990), 193-199, which is incorporated by reference herein. Hypothermia is a marker of CNS penetration for AChE inhibitors.
The dose range and time course for cholinergic effects of the compounds of the invention was determined as described below. • Subjects: Two hundred eight male CD IGS (Sprague Dawley derived) rats were received at 126-150 grams and maintained four per cage on a regular light/dark cycle (lights on 0600-1800) with ad libitum food and water for about 1 week before commencement of experimentation. • Apparatus: Injections were made subcutaneously (s.c.) with a 25-gauge needle on a 1-mL tuberculin syringe. Observations were made in a 5½×10-inch polycarbonate rat housing cage. […]
Test Compounds were dosed at 1, 3, 10, 30, and 100 mg/kg • Procedure: The rats were brought to the test room in the home cage. Baseline temperatures were measured just before injection. […] At 0.5, 1, 2, and 4 hours after injection, it was observed briefly for gross signs; salivation was scored as absent, clearly present, or copious; and rectal temperature was taken. […] Salivation score and temperature were determined within this constraint, but only the most salient of gross signs were noted. […]

BuChE, sequence (P06276 29-602): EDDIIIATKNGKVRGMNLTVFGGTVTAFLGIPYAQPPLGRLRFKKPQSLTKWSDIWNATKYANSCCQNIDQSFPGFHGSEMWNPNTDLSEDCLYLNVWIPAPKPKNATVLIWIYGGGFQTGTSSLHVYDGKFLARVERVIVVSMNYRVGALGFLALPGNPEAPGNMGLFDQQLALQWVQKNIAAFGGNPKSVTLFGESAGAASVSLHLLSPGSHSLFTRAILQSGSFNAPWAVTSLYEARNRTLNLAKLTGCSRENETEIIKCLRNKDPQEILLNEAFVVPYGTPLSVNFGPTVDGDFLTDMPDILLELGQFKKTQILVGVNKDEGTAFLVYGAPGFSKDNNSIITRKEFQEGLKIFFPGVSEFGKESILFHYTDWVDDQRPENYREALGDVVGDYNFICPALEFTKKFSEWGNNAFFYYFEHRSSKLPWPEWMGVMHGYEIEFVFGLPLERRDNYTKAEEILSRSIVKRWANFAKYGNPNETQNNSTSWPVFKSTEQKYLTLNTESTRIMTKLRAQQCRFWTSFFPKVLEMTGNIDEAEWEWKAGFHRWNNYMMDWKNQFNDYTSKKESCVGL

Compound	BuChE I (%) 10 μM ([1]; 10 μM) [%]	TIMTD/ MED [2]	other results
CCN(C)C(=O)Oc1cccc([C@H](C)N(C)C)c1 [Compound 1, S-rivastigmine, reference compound]	–	–	BuChE I (%) 10 μM [1]: 100%
C#CCN(C(=O)Oc1cccc([C@H](C)N(C)C)c1)[C@H](C)Cc1ccccc1 [Compound 11, S-riva-desmethylselegiline]	17	–	–
C[C@@H](c1cccc(OC(=O)N2CCN(C3=Nc4ccccc4Oc4ccc(Cl)cc43)CC2)c1)N(C)C [Compound 3, S-riva-amoxapine]	6	≧10	–
C[C@@H](c1cccc(OC(=O)N2CC[C@@H](c3ccc(F)cc3)[C@H](COc3ccc4c(c3)OCO4)C2)c1)N(C)C [Compound 9A, S-riva-paroxetine]	4	–	–
C[C@@H](c1cccc(OC(=O)N(C)CC[C@H](Oc2cccc3ccccc23)c2cccs2)c1)N(C)C [Compound 10A, S-riva-duloxetine]	36	–	–
CC(CC1CCCCC1)N(C)C(=O)Oc1cccc([C@H](C)N(C)C)c1 (stereo partly shown) [Compound 16, S-riva-propylhexedrine]	–	≧10	–
C[C@@H](Cc1ccccc1)NC(=O)Oc1cccc([C@H](C)N(C)C)c1 [Compound 20, S-riva-d-amphetamine]	–	–	IC50 [3]: 449 nM
C[C@@H](c1cccc(OC(=O)N(C)CCC(Oc2ccc(C(F)(F)F)cc2)c2ccccc2)c1)N(C)C (stereo partly shown) [Compound 7A, S-riva-fluoxetine]	15	≧30	–
C#CCN(C(=O)Oc1cccc([C@@H](C)N(C)C)c1)[C@H](C)Cc1ccccc1 [Compound 17, R-riva-desmethylselegiline]	12	–	–
CN1CC[C@@]2(C)c3cc(OC(=O)Nc4ccccc4)ccc3N(C)[C@@H]12 [Phenserine, reference compound]	–	–	BuChE I (%) 10 μM [1]: 42%; BuChEI (%) 1 μM [4]: 93%
C#CCN(C(=O)Oc1ccc2c(c1)[C@]1(C)CCN(C)[C@@H]1N2C)[C@H](C)Cc1ccccc1 [Compound 18, Physo-desmethylselegiline]	8	–	–
COc1ccccc1CC(C)N(C)C(=O)Oc1cccc([C@H](C)N(C)C)c1 (stereo partly shown) [Compound 15, S-riva-methoxyphenamine]	30	–	–
C[C@@H](c1cccc(OC(=O)N(C)CCCN2c3ccccc3CCc3ccccc32)c1)N(C)C [Compound 4A, S-riva-desipramine]	60	≧30	–
C[C@H](Cc1ccccc1)N(C)C(=O)Oc1cccc([C@H](C)N(C)C)c1 [Compound 7, S-riva-l-methamphetamine]	–	–	generalization to methamphetamine (lever selection) ([5]; rats trained to discriminate methamphetamine from vehicle, compound 7 at 0.01-3.2 mg/kg i.p., FIG. 1 top): lack of stimulus generalization to methamphetamine; behavioral disruption ([5]; rats, 1.0 mg/kg of compound 7, FIG. 2 lower): without behavioral disruption; rate of responding ([5]; rats, compound 7 at 0.01-3.2 mg/kg i.p., FIG. 1 lower): markedly decreased reponse rates
C[C@@H](c1cccc(OC(=O)N(C)CCC=C2c3ccccc3CCc3ccccc32)c1)N(C)C [Compound 5A, S-riva-nortriptyline]	55	≧100	minimal effective dose [6]: ≤ 1 mg/kg; Max Tolerated Dose ([2]; rats, s.c., test doses given in mg/kg): ≧100
C[C@@H](c1cccc(OC(=O)N(C)[C@@H](C)Cc2ccccc2)c1)N(C)C [Compound 13, S-riva-d-methamphetamine]	–	–	IC50 [3]: 5440 nM
C[C@@H](c1cccc(OC(=O)N[C@H]2C[C@@H]2c2ccccc2)c1)N(C)C (stereo in doubt) [Compound 2, S-riva-tranylcypromine]	67	3	–
Cc1ccccc1O[C@H](CCN(C)C(=O)Oc1cccc([C@H](C)N(C)C)c1)c1ccccc1 [Compound 5, S-riva-atomoxetine]	14	–	–
COCCCC/C(=N\OCCNC(=O)Oc1cccc([C@H](C)N(C)C)c1)c1ccc(C(F)(F)F)cc1 [Compound 8A, S-riva-fluvoxamine]	6	–	–
C[C@@H](c1cccc(OC(=O)N(C)CCCC2c3ccccc3C=Cc3ccccc32)c1)N(C)C [Compound 6A, S-riva-protriptyline]	53	>1	–
